The values that follow come from patent US9060971B2, “Combination pharmaceutical agents as inhibitors of HCV replication” (Enanta Pharmaceuticals, Inc., priority 2010, dated 2015).

In the assay the test system is HCV 1b genotype replicon. As to the kind of experiment: HCV replicon drug screening assay (quantitative RT-PCR or luciferase), genotype 1b. The assay is classed as cell-based. The conditions noted are these: Hepatitis C virus, read-out: Genotype-1b replicon EC50 Range. In a few lines:
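Huh-derived subgenomic genotype 1b replicon lines (SGR 11-7, neo; Huh-luc/neo-ET, firefly luciferase with adaptive mutations) grown at 37 °C. EC50 from HCV RNA by TaqMan one-step qRT-PCR normalised to GAPDH RNA. Cytotoxicity measured in parallel by MTS.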

Where [1] appears, read: HCV 1b genotype replicon, quantitative RT-PCR or luciferase assay.

Read-outs that look alike come from different tables or passages of the source.

Usually EC50 stands for the concentration at which the effect is half-maximal. Regarding `C=C1C[C@@H](c2nc(-c3ccc(C#Cc4ccc5[nH]c([C@@H]6CC(=C)CN6C(=O)[C@@H](NC(=O)OC)C(C)C)nc5c4)cc3)c[nH]2)N(C(=O)[C@@H](NC(=O)OC)C(C)C)C1` [Compound 119], under setting [1], the EC50 is less than 1 nM. The same measure, in the same setting: the same measure for `COC(=O)N[C@@H](C(=O)N1CCC[C@H]1c1ncc(C(=O)N[C@H]2CC[C@H](NC(=O)c3cnc([C@@H]4CCCN4C(=O)[C@H](NC(=O)OC)c4ccccc4)[nH]3)CC2)[nH]1)c1ccccc1` [Compound 120]: greater than 10 nM. For `COC(=O)N[C@@H](C(=O)N1CCC[C@H]1c1ncc(C(=O)Nc2ccc(NC(=O)c3cnc([C@@H]4CCCN4C(=O)[C@H](NC(=O)OC)c4ccccc4)[nH]3)cc2)[nH]1)c1ccccc1` [Compound 121], the EC50 fell in the range of 1 to 10 nM. Regarding `COC(=O)N[C@H](C(=O)N1CCC[C@H]1c1nc2cc(C#Cc3ccc(-c4c[nH]c(C5[C@H]6CC[C@H](C6)N5C(=O)[C@@H](NC(=O)OC)C(C)C)n4)cc3)ccc2[nH]1)C(C)C` (stereo partly shown) [Compound 122], under setting [1], the EC50 is less than 1 nM. In the case of `COC(=O)N[C@H](C(=O)N1CCC[C@H]1c1nc(-c2ccc(C#Cc3ccc4[nH]c([C@@H]5[C@H]6CC[C@H](C6)N5C(=O)[C@@H](NC(=O)OC)C(C)C)nc4c3)cc2)c[nH]1)C(C)C` [Compound 123], the EC50 under setting [1] is less than 1 nM. The same measure, in the same setting: the same measure for `COC(=O)N[C@H](C(=O)N1CCC[C@H]1c1nc(-c2ccc(-c3ccc(-c4ccc5[nH]c([C@@H]6[C@H]7CC[C@H](C7)N6C(=O)[C@@H](NC(=O)OC)C(C)C)nc5c4)cc3)cc2)c[nH]1)C(C)C` [Compound 124]: less than 1 nM; for `COC(=O)N[C@H](C(=O)N1CCC[C@H]1c1ncc(-c2ccc(C#Cc3ccc4nc([C@@H]5C6CCC(CC6)N5C(=O)[C@@H](NC(=O)OC)C(C)C)[nH]c4c3)cc2)[nH]1)C(C)C` [Compound 125]: less than 1 nM. Still for that read-out and setting: the same measure for `COC(=O)N[C@H](C(=O)N1[C@@H]2CC[C@@H](C2)[C@H]1c1nc(-c2ccc(C#Cc3ccc4[nH]c([C@@H]5[C@H]6CC[C@H](C6)N5C(=O)[C@@H](NC(=O)OC)C(C)C)nc4c3)cc2)c[nH]1)C(C)C` [Compound 126]: less than 1 nM.

On to `COC(=O)N[C@H](C(=O)N1CCC[C@H]1c1nc(-c2ccc3cc(-c4ccc5[nH]c([C@@H]6[C@H]7CC[C@H](C7)N6C(=O)[C@@H](NC(=O)OC)C(C)C)nc5c4)ccc3c2)c[nH]1)C(C)C` [Compound 129], for which, under setting [1], the concentration for a half-maximal effect (EC50) was less than 1 nM. The same measure, in the same setting: the same measure for `CON=C1C[C@@H](c2nc3cc(C#Cc4ccc(-c5c[nH]c([C@@H]6CCCN6C(=O)[C@@H](NC(=O)OC)C(C)C)n5)cc4)ccc3[nH]2)N(C(=O)[C@@H](NC(=O)OC)C(C)C)C1` [Compound 131]: less than 1 nM.
